Data: patent US10899795B2, “Modified epitopes for boosting CD4+ T-cell responses” (Katholieke Universiteit Leuven, priority 2012, dated 2021)

Tested on: hemagglutinin-loaded dendritic cells
Format: cell-based, C57BL/6 mice

CLAI YSTVASSLV LLV [SEQ ID NO:9]
lysis of hemagglutinin-loaded dendritic cells (51Cr release): significant lysis
